{"source": "patent US7572798B2", "about": "“Combi-molecules having signal transduction inhibitory properties and DNA damaging properties” (McGill University, priority 2001, dated 2009)", "key": {"[1]": {"molecular_target": "T1, EGFR (Homo sapiens, UniProt P00533)", "T1 sequence (P00533 25-1210)": "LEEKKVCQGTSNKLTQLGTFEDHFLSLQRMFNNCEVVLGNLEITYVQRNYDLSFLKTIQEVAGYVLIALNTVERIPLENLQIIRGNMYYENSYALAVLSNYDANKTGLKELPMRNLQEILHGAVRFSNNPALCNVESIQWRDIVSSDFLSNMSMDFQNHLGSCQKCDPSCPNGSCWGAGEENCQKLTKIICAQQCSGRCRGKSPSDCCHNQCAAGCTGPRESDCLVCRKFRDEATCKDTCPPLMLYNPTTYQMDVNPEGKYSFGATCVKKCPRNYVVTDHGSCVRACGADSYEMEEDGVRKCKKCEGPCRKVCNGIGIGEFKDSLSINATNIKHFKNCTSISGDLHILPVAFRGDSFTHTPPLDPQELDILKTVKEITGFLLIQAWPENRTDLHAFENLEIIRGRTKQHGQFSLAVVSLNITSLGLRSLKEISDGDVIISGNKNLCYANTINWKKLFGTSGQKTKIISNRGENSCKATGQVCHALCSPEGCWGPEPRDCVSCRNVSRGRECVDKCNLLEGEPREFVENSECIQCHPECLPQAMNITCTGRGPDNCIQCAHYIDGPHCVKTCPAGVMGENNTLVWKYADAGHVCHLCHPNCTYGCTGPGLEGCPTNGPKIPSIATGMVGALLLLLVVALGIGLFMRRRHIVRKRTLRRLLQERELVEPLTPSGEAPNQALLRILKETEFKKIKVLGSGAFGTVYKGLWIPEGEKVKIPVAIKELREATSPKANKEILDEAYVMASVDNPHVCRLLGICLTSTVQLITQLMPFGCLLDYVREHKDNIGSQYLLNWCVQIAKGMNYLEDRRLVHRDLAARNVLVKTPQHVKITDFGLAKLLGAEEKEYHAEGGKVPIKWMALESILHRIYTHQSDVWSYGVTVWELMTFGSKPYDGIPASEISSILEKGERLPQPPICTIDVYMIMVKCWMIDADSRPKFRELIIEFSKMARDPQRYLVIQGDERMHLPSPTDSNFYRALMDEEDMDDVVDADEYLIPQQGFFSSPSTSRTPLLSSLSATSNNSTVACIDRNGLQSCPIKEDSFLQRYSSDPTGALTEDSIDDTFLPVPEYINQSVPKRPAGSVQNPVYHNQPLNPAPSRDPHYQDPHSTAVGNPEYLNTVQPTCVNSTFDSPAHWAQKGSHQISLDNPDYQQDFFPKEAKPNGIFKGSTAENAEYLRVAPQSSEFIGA", "test": "EGF-induced EGFR autophosphorylation in A431 cells (Western blot)", "experimental": "The inhibition of receptor autophosphorylation in viable cells was determined by anti-phosphotyrosine Western Blots. A431 cells were pre-incubated overnight for 24 h at 37° C. in a 6-well plate (1×10^6) with 0.1% serum, after which they were exposed to a range of doses for each drug for 2 h and subsequently treated with 50 ng/mL EGF for 30 min at 37° C. The cells were thereafter washed with PBS and re-suspended in cold lysis buffer [50 mM Tris-HCl pH 7.5; 150 mM NaCl; 1% NP40, 1 mM EDTA; 5 mM NaF; 1 mM Na3VO4; protease inhibitor tablet (Roche Biochemicals, Laval, Canada)]. The lysates were kept on ice for 30 min and collected by centrifugation at 10 000 rpm for 20 min at 4° C. The protein concentrations were determined against a standardized control using the Bio-Rad protein assay kit (Bio-Rad Laboratories, Hercules, Calif.). […] Non-specific binding on the PVDF membrane was minimized with a blocking buffer containing nonfat dry milk (3%) in PBS. The membrane was blotted with primary antibodies [either antiphosphotyrosine antibody (UBI, Lake Placid, N.Y.) for the detection of phosphotyrosine, or anti-EGFR (Neomarkers, Fremont, Calif.) for the determination of corresponding receptor levels], and anti-β-tubulin (Neomarkers, Fremont, Calif.) for the detection of equal loading. Thereafter, blots were incubated with HRP-goat anti-mouse antibody (1:200 dilution; Bio-Rad Laboratories, Hercules, Calif.) and the bands visualized with an enhanced chemiluminescence system (Amersham Pharmacia Biotech, Buckinghamshire, UK). Band intensities were measured using the SynGene GeneTools software package (Cambridge, UK).\nThe inhibition of receptor autophosphorylation in viable cells was determined by anti-phosphotyrosine Western Blots. […] Protein concentrations were determined against a standardized control using the Bio-Rad protein assay kit (Bio-Rad Laboratories, Hercules, Calif.). […] Band intensities were measured using the SynGene GeneTools software package (Cambridge, UK)."}, "[2]": {"molecular_target": "T1, EGFR", "test": "EGFR TK ELISA with PGT substrate (competitive binding at the ATP site)", "type": "biochemical", "design": "purchased BIOMOL (Plymouth Meeting); also a gift from Pfizer Inc", "method": "The ability of the combi-molecules to block EGFR TK activity was determined by an ELISA assay using poly(L-glutamic acid-L-tyrosine, 4:1) PGT as a substrate and commercially available EGFR.\nNunc MaxiSorp 96-well plates were incubated overnight at 37° C. with 100μL per well of 0.25 mg/mL PGT in PBS. Excess PGT was removed and the plates were washed 3 times with Tween 20 (0.1%) in PBS. […] The compound was added and phosphorylation initiated by the addition of ATP (20 μM). After 8 min at room temperature with constant shaking, the reaction was terminated by the aspiration of the reaction mixture and by rinsing the plate 4 times with wash buffer (Tween 20 (0.1%) in PBS). […] Antibody was removed by aspiration, and the plates washed 4 times with wash buffer. The signals were developed by the addition of 50 μL per well of TMB peroxidase substrate (Kierkegaard and Perry Laboratories, Gaithersberg, Md.).\nThis assay is similar to the one previously described. Nunc MaxiSorp 96-well plates were incubated overnight at 37° C. with 100 μl/well of 25 ng/ml PGT in PBS. Excess PGT was removed and the plates were washed three times with wash buffer (Tween 20 (0.1%) in PBS). […] The compound was added and phosphorylation initiated by the addition of ATP (20 μM). After 8 min at room temperature with constant shaking, the reaction was terminated by aspirating the mixture and by rinsing the plates four times with wash buffer Tween 20 (0.1%) in PBS. […] Antibody was removed by aspiration, and the plate washed four times with wash buffer. The signals were developed by the addition of 50 μl/well of 3,3′,5,5′-tetramethylbenzidine (TMB) peroxidase substrate (Kierkegaard and Perry Laboratories, Gaithersberg, Md., USA)."}, "[3]": {"tested_on": "A431 cells", "test": "SRB growth inhibition assay in A431 cells", "type": "cell-based, human", "conditions": "for IC50: Homo sapiens", "method": "All growth inhibitory activities were evaluated using the SRB assay (33). Briefly, following drug treatment, cells were fixed using 50 μL of cold trichloroacetic acid (50%) for 60 min at 4° C., washed five times with tap water, and stained for 30 min at room temperature with SRB (0.4%) dissolved in acetic acid (0.5%). The plates were rinsed five times with 1% acetic acid and allowed to air dry. The resulting colored residue was dissolved in 200 μL of Tris base (10 mM), and the optical density read for each well at 540 nm using a Bio-Rad microplate reader (model 2550). […]\nCell monolayers were continuously exposed to different concentrations of each drug for 72 h. Under short exposure, they were treated with each drug for 2 h and allowed to recover for 72 h in drug-free medium.\nTo study the reversibility of the antiproliferative effects of our compounds, cells were grown to 70% confluence in 96-well plates and subsequently washed twice with PBS, after which they were exposed to serum-free medium for 18 h. Under continuous exposure, the cells were exposed to different concentrations of each drug for 120 h. Under short exposure, they were exposed to each drug for 2 h, after which they were allowed to recover for 120 h in drug free medium. Growth inhibitory activities were evaluated using the SRB assay as described above."}, "[4]": {"tested_on": "PDGFR", "test": "PDGF-induced PDGFR autophosphorylation in NIH3T3 cells (Western blot)", "type": "cell-based, mouse", "conditions": "concentrations as high as 30 μM", "experimental": "The inhibition of receptor autophosphorylation in viable cells was determined by anti-phosphotyrosine Western Blots. A431 and NIH3T3 cells were grown to confluence in 6-well plates, washed twice with PBS and exposed to serum-free medium for 18 h. They were subsequently treated with the compounds for 90 min and then with EGF (100 ng/ml) for 10 min (A431 cells), or with PDGF (100 ng/ml) for 10 min (NIH3T3 cells). They were thereafter washed with PBS and re-suspended in cold lysis buffer [50 mM Tris-HCl pH 7.5; 150 mM NaCl; 1% Nonidet P-40, 1 mM EDTA; 5 mM NaF; 1 mM Na3VO4; protease inhibitor tablet (Roche Biochemicals, Laval, Canada)]. The lysates were kept on ice for 30 min and collected by centrifugation at 10,000 rpm for 20 min at 4° C. Protein concentrations were determined against a standardized control using the Bio-Rad protein assay kit (Bio-Rad Laboratories, Hercules, Calif.). Equal amounts of protein (40 μg/mL) from each cell lysate were added to an 8% SDS-polyacrylamide gel electrophoresis (SDS-PAGE) and transferred to a polyvinylidene difluoride membrane (PVDF) (Millipore, Bedford, Mass.). Non-specific binding on the membrane was minimized with a blocking buffer containing non-fat dry milk (3%) in PBS. […] Band intensities were measured using the SynGene GeneTools software package (Cambridge, UK)."}, "[5]": {"molecular_target": "T2, cytoplasmic domain of the insulin receptor β subunit (Homo sapiens, UniProt P06213)", "T2 construct": "Baculovirus-expressed cytoplasmic domain of the insulin receptor β subunit; purchased Biomol Research laboratories Inc., USA; host or cells: Baculovirus expression", "T2 sequence (P06213 980-1382 limits assumed)": "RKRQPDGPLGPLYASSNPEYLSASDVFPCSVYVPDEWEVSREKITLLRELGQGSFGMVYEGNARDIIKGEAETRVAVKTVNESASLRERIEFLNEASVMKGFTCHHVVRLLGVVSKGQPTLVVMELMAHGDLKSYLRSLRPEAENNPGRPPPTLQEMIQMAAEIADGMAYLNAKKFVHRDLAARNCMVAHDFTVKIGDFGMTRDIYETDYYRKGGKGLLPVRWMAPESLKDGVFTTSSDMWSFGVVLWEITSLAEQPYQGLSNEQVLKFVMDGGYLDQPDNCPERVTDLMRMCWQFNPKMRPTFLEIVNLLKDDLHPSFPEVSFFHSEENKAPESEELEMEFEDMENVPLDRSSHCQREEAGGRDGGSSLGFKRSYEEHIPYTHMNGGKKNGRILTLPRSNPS", "test": "insulin receptor kinase ELISA", "type": "biochemical", "conditions": "1-100 μM range", "method": "(§1) Conditions for the c-src and insulin kinase assays were similar to those of the EGFR kinase assay, with the exception of the addition of 1 mM manganese chloride to the assay buffer, and a final ATP concentration of 100 μM. The reaction was terminated by the addition of 50 μl of a 250 mM solution of EDTA prior to aspiration."}, "[6]": {"molecular_target": "T3, HER2 (erbB2) gene product p185neu (Homo sapiens, UniProt P04626)", "T3 construct": "heregulin (HRG)-stimulated phosphorylation of the HER2 (erbB2) gene product; endogenous in cells", "T3 sequence (P04626 23-1255)": "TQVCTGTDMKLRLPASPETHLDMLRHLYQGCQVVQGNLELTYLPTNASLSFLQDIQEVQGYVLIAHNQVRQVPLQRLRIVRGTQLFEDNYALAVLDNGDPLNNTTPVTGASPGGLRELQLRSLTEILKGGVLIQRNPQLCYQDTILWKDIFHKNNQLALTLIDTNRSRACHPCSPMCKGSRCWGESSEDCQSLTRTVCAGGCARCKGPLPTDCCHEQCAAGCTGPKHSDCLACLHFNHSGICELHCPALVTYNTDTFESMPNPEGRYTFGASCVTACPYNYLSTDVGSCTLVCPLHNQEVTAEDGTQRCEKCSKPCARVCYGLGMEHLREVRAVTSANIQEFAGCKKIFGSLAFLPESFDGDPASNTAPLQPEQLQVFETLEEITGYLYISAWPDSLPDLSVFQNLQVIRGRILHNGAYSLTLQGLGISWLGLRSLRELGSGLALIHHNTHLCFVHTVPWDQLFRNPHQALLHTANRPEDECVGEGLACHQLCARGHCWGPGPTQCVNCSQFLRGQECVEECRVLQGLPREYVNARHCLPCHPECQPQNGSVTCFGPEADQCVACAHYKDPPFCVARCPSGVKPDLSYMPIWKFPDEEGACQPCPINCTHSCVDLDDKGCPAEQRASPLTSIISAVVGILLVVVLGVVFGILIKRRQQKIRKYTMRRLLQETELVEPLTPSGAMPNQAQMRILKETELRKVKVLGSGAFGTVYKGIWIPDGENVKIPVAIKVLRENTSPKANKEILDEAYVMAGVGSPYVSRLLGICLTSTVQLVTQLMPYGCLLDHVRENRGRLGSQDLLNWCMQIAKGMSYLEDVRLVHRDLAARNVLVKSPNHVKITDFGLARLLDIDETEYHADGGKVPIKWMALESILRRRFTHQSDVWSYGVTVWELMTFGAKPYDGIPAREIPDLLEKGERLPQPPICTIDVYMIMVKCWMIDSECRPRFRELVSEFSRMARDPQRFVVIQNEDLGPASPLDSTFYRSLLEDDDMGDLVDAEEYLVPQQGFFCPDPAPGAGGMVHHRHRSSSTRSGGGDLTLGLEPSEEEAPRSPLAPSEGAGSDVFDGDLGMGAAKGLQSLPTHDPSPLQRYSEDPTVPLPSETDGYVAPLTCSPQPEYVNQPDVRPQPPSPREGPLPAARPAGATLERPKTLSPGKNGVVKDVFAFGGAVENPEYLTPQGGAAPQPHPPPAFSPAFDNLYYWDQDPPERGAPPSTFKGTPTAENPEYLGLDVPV", "test": "Heregulin-stimulated phosphorylation of p185neu in MDA-MB453 cells", "type": "cell-based"}, "[7]": {"tested_on": "MAPK", "test": "EGF-induced MAPK phosphorylation in A431 cells (Western blot)", "type": "cell-based, human", "conditions": "A431, at concentrations as low as 1 μM", "method": "For the inhibition study of mitogen-activated protein kinase (MAPK) activation by BJ2000, protein lysates were obtained as described above and a Western blot was performed (39). The membrane was incubated with anti-phosphorylated MAPK antibodies or antibodies specific for MAPK (Cell Signaling, Beverly, Mass., USA)."}, "[8]": {"molecular_target": "T4, human c-src (Homo sapiens, UniProt P12931)", "T4 construct": "purchased Upstate NY; host or cells: Baculovirus expression", "T4 sequence (P12931 whole entry)": "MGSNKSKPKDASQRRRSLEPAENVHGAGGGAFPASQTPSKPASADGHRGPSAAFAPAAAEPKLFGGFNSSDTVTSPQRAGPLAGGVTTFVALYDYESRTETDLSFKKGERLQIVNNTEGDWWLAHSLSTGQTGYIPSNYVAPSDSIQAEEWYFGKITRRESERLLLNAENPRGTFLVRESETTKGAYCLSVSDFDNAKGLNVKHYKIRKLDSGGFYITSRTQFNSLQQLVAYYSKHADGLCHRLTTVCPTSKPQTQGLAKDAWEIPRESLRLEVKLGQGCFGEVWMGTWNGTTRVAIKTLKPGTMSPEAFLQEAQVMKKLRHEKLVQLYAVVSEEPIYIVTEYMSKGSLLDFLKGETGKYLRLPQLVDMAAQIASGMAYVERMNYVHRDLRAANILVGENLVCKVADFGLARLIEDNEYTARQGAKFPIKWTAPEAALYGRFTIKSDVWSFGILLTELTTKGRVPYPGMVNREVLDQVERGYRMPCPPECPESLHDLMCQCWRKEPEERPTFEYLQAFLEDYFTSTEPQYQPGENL", "test": "c-src kinase ELISA", "type": "biochemical", "conditions": "1-100 μM range", "method": "as §1"}, "[9]": {"test": "Degradation in serum-containing cell culture medium (UV, HPLC)", "type": "in vitro ADME", "conditions": "bovine, 37° C.", "method": "Thereafter, proteins were precipitated by the addition of acetonitrile (3.5 ml) and the supernatant collected by centrifugation. […] The operating mode was isocratic and two solutions, “A” (50% acetonitrile) and “B” (50% water), were used with a 0.5 ml/min flow rate and a 5 μL injection volume. […] For the rapid quantitation of metabolite, a less polar acetonitrile-water (70:30) eluent was used.\nThe half-life was estimated by a one-phase exponential decay curve-fit method using the GraphPad software package (GraphPad Software, Inc., San Diego, Calif.).\nThe half-life of BJ2000 under physiological conditions was studied by UV-spectrophotometry. BJ2000 was dissolved in a minimum volume of DMSO, diluted with RPMI-1640 supplemented with 10% FBS, and absorbencies read at 340 nm in a UV cell maintained at 37° C. with a circulating water bath. The half-life was estimated by a one-phase exponential decay curve-fit method, using the GraphPad software package (GraphPad software, Inc., San Diego, Calif., USA).\nProteins were thereafter precipitated by the addition of acetonitrile (3.5 ml), and the supernatant collected by centrifugation. […] HPLC analyses were performed on a Hewlett Packard 1090 liquid chromatograph, using a Waters C4 15-μm 300×3.9-mm reverse phase column to characterize and quantitate the products resulting from the degradation of BJ2000. […] The peaks were detected at 250 nm."}, "[10]": {"tested_on": "A431 cells", "test": "Alkaline comet assay for DNA damage in A431 cells", "conditions": "A431, 30 min or 2 h exposure", "experimental": "A431 cells were exposed to drugs for 30 min or 2 h, and harvested with trypsin-EDTA. The cells were subsequently collected by centrifugation and re-suspended in PBS. The resulting cell suspension was diluted to approximately 10^6 cells, and mixed with agarose (1%) in PBS at 37° C. in a 1:10 dilution. The gels were cast on Gelbond strips (Mandel Scientific, Guelph, Canada) using gel casting chambers, as previously described (32), then immediately placed into a lysis buffer [2.5 M NaCl, 0.1 M tetra-sodium EDTA, 10 mM tris-base, 1% (w/v) N-lauryl sarcosine, 10% (v/v) DMSO and 1% (v/v) Triton X-100]. After being kept on ice for 30 min, the gels were gently rinsed with distilled water and then immersed in a second lysis buffer [2.5 M NaCl, 0.1 M tetra-sodium EDTA, 10 mM tris-base], containing 1 mg/ml proteinase K for 60 min at 37° C. Thereafter, the gels were rinsed with distilled water, incubated in alkaline electrophoresis buffer for 30 min at 37° C., and electrophoresed at 300 mA for 60 min. The gels were subsequently rinsed with distilled water and placed into 1 M ammonium acetate for 30 min. They were further soaked in 100% ethanol for 2 h, dried overnight and subsequently stained with SYBR Gold ( 1/10000 dilution of stock supplied from Molecular Probes, OR) for 20 min. For evaluation of comets, DNA damage was assessed using the Tail Moment parameter (i.e. the product of the distance between the barycentres of the head and the tail of the comet. A minimum of 50 cell comets were analyzed for each sample using ALKOMET v3.1 software, and values are an average of tail moments for the entire cell population.\nCell suspensions were diluted to approximately 10^6 cells, and mixed with agarose (1%) in PBS at 37° C. in a 1:10 dilution. The gels were cast on Gelbond strips (Mandel Scientific, Guelph, Canada) using gel casting chambers, as previously described (31), and then immediately placed in a lysis buffer [2.5 M NaCl, 0.1 M tetra-sodium EDTA, 10 mM Tris-base, 1% (w/v) N-lauryl sarcosine, 10% (v/v) DMSO, and 1% (v/v) Triton X-100, pH 10.0]. After being kept on ice for 30 min, the gels were gently rinsed with distilled water and immersed in a second lysis buffer (2.5 M NaCl, 0.1 M tetrasodium EDTA, 10 mM Tris-base) containing 1 mg/ml proteinase K for 60 min at 37° C. Thereafter, the gels were rinsed with distilled water, incubated in alkaline electrophoresis buffer for 30 min at 37° C., and electrophoresed at 300 mA for 60 min. The gels were subsequently rinsed with distilled water and placed in 1 M ammonium acetate for 30 min. They were soaked in 100% ethanol for 2 h, dried overnight, and subsequently stained with SYBR Gold ( 1/10000 dilution of stock supplied from Molecular Probes, Eugene, Oreg.) for 20 min. Comets were visualized at 330× magnification and DNA damage was quantitated using the Tail Moment parameter (i.e., the distance between the barycenter of the head and the tail of the comet multiplied by the percentage of DNA within the tail of the comet). A minimum of 50 cell comets were analyzed for each sample, using ALKOMET version 3.1 image analysis software, and values are averages of tail moments for the entire cell population per sample."}}, "note": "“Also recorded” adds a separate entry of the source. Read-outs that look alike come from different tables or passages of the source."}
{"smiles": "CNN=Nc1ccc2ncnc(Nc3cccc(Cl)c3)c2c1", "note": "[BJ2000]", "values": [{"measurement": "IC50", "setting": "[1]", "result": "~6", "unit": "µM"}, {"measurement": "fold stronger affinity than SMA41", "setting": "[2]", "result": 2, "unit": "fold"}, {"measurement": "IC50", "setting": "[2]; ELISA, PGT substrate, purified EGFR, ATP 20 μM, 8 min, read-out: IC50, inhibition of EGFR TK (competitive binding at ATP site)", "result": 0.1, "unit": "µM"}, {"measurement": "fold greater EGFR binding affinity than metabolite FD105", "setting": "[2]; purified EGFR, ATP site", "result": 2, "unit": "fold"}, {"measurement": "fold more potent than metabolite FD105", "setting": "[3]; 120 h continuous, SRB, A431", "result": "≈ 3 fold"}, {"measurement": "IC50", "setting": "[3]; A-431, 120 h, read-out: IC50 growth inhibition", "result": 15, "unit": "µM"}, {"measurement": "IC50", "setting": "[3]; A-431, read-out: IC50 growth inhibition", "result": 38, "unit": "µM"}, {"measurement": "effect on PDGF-induced PDGFR autophosphorylation", "setting": "[4]", "result": "no effect"}, {"measurement": "effect on insulin receptor TK", "setting": "[5]", "result": "nor did it exert any effect on insulin receptor TK"}, {"measurement": "effect on heregulin (HRG)-stimulated phosphorylation of p185neu", "setting": "[6]", "result": "able to block"}, {"measurement": "inhibition of EGF-induced MAPK phosphorylation", "setting": "[7]", "result": "complete inhibition; also recorded: block MAPK phosphorylation"}, {"measurement": "effect on c-src TK activity", "setting": "[8]", "result": "did not block c-src TK activity"}, {"measurement": "half-life", "setting": "[9]; serum-containing cell culture medium (RPMI with 10% serum), RPMI with 10% serum, read-out: half-life (t1/2) by UV spectrophotometry at 340 nm", "result": 34, "unit": "min"}, {"measurement": "half-life at 625 µM", "setting": "[9]; RPMI-1640 with 10% FBS, read-out: half-life (t1/2) by HPLC analysis", "result": 75, "unit": "min"}, {"measurement": "DNA damage (comet tail moment)", "setting": "[10]", "result": "induced dose-dependent DNA damage; also recorded: induced significant DNA damage"}]}
